Results published in patent US20260209152A1, “Substituted Hydroxystilbene Compounds and Derivatives, Synthesis and Uses Thereof” (Kynan Duke IP, LLC, priority 2019, published 2026).
Several values for one entry are separate records, joined by “and”; a condition that tells them apart may be missing. Equal entries are not always repeated. Where two headings read alike, the source gives them in different places.

How the values were obtained:
[1] = test system: IL-4 secretion from human CD4-positive T-cells stimulated with antiCD2/antiCD3/antiCD28-coated beads; assay: T-cell IL-4 assay (assay number 1297, 1298); assay type: cell-based; conditions: for Max Eff.: IL-4 (1298): highest effect as percentage of control maximum effect; for Emax: read-out: maximum efficacy, IL-4 secretion
Method: Inhibition of IL-4 and IL-2 secretion from human CD4-positive T-cells stimulated with antiCD2/antiCD3/antiCD28-coated beads. LEO Pharma Open Innovation assay number 1297, 1298, 1299.
The inflammatory skin disease atopic dermatitis is characterized by the T-cell cytokines IL-4, IL-13 and IL-22. In the present assay, human T-cells are stimulated with beads coated with antibodies against CD2, CD3 and CD28 to activate the T-cell receptor.
Then the level of secreted of IL-4 is measured in the culture supernatant using electrochemiluminescence (MSD kits, Meso Scale Discovery), IL-2 is measured by proximity homogenous time-resolved fluorescence (HTRF) and the amount of living cells is measured by addition of resazurin (PrestoBlue®) to allow identifying compounds that inhibit T-cell proliferation or viability.
• Peripheral blood mononuclear cells (PBMC) are isolated from fresh human buffy coats by centrifugation on Lymphoprep® following instructions from Sebmate™ (Stemcell). • The cells are resuspended in 30 ml of PBS+2% Serum and counted. • CD4 positive T-cells are isolated from freshly isolated PBMC using EasySep™ humane CD4+ T-cell Isolation Kit (Catalog #17952) and following the manufacturer's protocol. • Cells are spun down and resuspended in freezing medium (X-vivo 15+10% FBS+5% DMSO) • Cells are frozen in aliquots of 3×10^7 cells/vial matching one 384 plate. Cells are place in Coolcell box and place in −80° C. freezer for one day then transferred to the −150° C. freezer in a prechilled box.
• Prepare assay medium: 500 ml X-Vivo 15+5 ml Glutamax (2 mM final)+5 ml pen/strep (100 U/ml final). • Add 5 μL medium to the wells of a 384 well plate (Greiner cat. No 788986). • CD4+ Cells: Thaw frozen cells from −150° C. freezer in 37° C. bath, and pipette the cells into 10 ml medium. Spin 10 min @170 g. • Resuspend pellet in 3.5 ml per 2.5×10^7 cells and add 10 μL per well to the plate (40000 cells/well) • Test compounds: Prepare compound-containing source plate, i.e. titrations in DMSO to be transferred to the assay plate. • Add 25 nL compounds and controls from the source plate to the assay plate (with cells). • Beads (T Cell Activation/Expansion Kit-human, Miltenyi Biotech, cat. no. 130-091-441): Coat beads with antibodies according to the kit procedure. • Add 10 μL beads to each well except for the negative controls. One bead per cell. Add 10 μL medium to the negative controls. • Incubate plates at 37° C., 5% CO2/95% air for 2 days.
• Remove plates from incubation and equilibrate to room temperature for 30 minutes. • IL-4 concentration in 10 μL supernatant is measured using an MSD IL-4 384-plate kit (Custom made) according to manufacturer protocol. • IL-2 concentrations in the supernatant is measured by an IL-2 HTRF kit, CisBio, cat. No 62HIL02PEH. • Add 4 μL medium to white proxi 384-well plates • Add 1 μL supernatant. • Add 4 μL mHTRF mix (each diluted 1:300 in ⅔ reconstitution buffer and ⅓ assay medium). • Spin the plates for 1 minute at 170 g • Seal and incubate overnight and read fluorescence in a plate reader • The amount of viable cells is measured by PrestoBlue® reagent • Add 15 μL diluted PrestoBlue® reagent (resazurin) corresponding to 2.5 μL Prestoblue/well to the assay plate. • Incubate overnight at 37° C./5% CO2. The fluorescence in the wells is measured (Ex615/Em 535).
IL-4 concentration in the supernatants is measured using electrochemiluminescence (MSD kits, Meso Scale Discovery). IL-2 concentration in the supernatants is measured using homogeneous time-resolved fluorescence resonance (TR-FRET). The assay is quantified by measuring fluorescence at 665 nm (proportional to IL-2 concentration) and 620 nm (control). A ratio 665/620*1000 is calculated.
The capacity of the test compound to inhibit IL-4 and IL-2 release is normalized to the signal in the negative control wells with un-stimulated T-cells.

Pancreatic MIA PaCa-2 = assay: CellTiter Glo cell viability assay; assay type: cell-based, human
How it was run: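 MIA PaCa-2 human pancreatic cancer cells were plated in 96-well plates, 1.7*10^3 cells/well in quadruplicate, and compounds were added as serial dilutions to build dose-response curves. Viability was read by CellTiter Glo Luminescence (Promega) on a Varioskan LUX reader. Relative luminescence was plotted against log dose, and IC50 was obtained by nonlinear regression in GraphPad Prism 7.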

[2] = inhibition of IL-4 secretion, human CD4-positive T-cells, read-out: Abs EC50: IL-4 (1298)
[3] = Homo sapiens, MIA PaCa-2, 72 h, 3 Days of treatment, 18 2-fold dilutions 5-0.00003 μM, read-out: Average IC50
[4] = Homo sapiens, MIA PaCa-2, 72 h, Table 4: 3 Days of treatment, 18 2-fold dilutions 5-0.00003 μM, Average (1, 8) or single Exp A-D, read-out: IC50
[5] = Homo sapiens, MIA PaCa-2, 120 h, Day 5 upon drug treatment, 10 dosages 0.0001-20 μM (Compound 8: 18 dosages 0.000038146 to 5 μM), read-out: IC50
[6] = Homo sapiens, MIA PaCa-2, MIA PaCa-2/CRL-1420, 11 dilutions 3-0.00001 μM, Table 6, read-out: IC50
[7] = Homo sapiens, MIA PaCa-2, Table 5A: 11 dilutions 3-0.00001 μM, average of experiments, read-out: IC50 average
[8] = Homo sapiens, CD4 positive, read-out: EC50, inhibition of IL-4 secretion
[9] = Homo sapiens, MIA PaCa-2, Table 5A: 11 dilutions 3-0.00001 μM, single experiments Exp E-K, read-out: IC50
[10] = Table 5A: 11 dilutions 3-0.00001 μM, single experiments Exp E-K, read-out: IC50

| Compound | Max Eff.: IL-4 (1298) [1] [%] | EC50 [1, 2] [nM] | IC50 (Pancreatic MIA PaCa-2; [3]) [nM] | IC50 (Pancreatic MIA PaCa-2; Homo sapiens, MIA PaCa-2, 72 h, Day 3 upon drug treatment, 10 dosages 0.0001-20 μM, read-out: IC50) [nM] | IC50 (Pancreatic MIA PaCa-2; [4]) [nM] | IC50 (Pancreatic MIA PaCa-2; [5]) [nM] | IC50 (Pancreatic MIA PaCa-2; [6]) [nM] | IC50 (Pancreatic MIA PaCa-2; [7]) [nM] | Fold IC50 (Pancreatic MIA PaCa-2; IC50 of 1 [KYN-001] vs 8 [KYN-119], 3 Days) | IC50 (Pancreatic MIA PaCa-2; Table 5A: 11 dilutions 3-0.00001 μM, average of experiments, read-out: IC50 average) [nM] | EC50 [1, 8] [nM] | Emax ([1]; Homo sapiens, CD4 positive) [%] | IC50 (Pancreatic MIA PaCa-2; [9]) [nM] | Fold more potent than 1 [KYN-001] (Pancreatic MIA PaCa-2; MIA PaCa-2 cells) | IC50 (Pancreatic MIA PaCa-2; [10]) | effect on IL-4 release, in words [1] |
| --- | --- | --- | --- | --- | --- | --- | --- | --- | --- | --- | --- | --- | --- | --- | --- | --- |
| COc1cc(/C=C/c2cc(O)cc(OC)c2CC=C(C)C)ccc1O [Compound 1, (E)-3-(4-hydroxy-3-methoxystyryl)-5-methoxy-4-(3-methylbut-2-en-1-yl)phenol] | 70 | 2930 | 127 | 204 | 888 | 50.7 | 109 | 80.6 |  |  |  |  |  |  |  |  |
| CCOc1cc(O)cc(/C=C/c2ccc(O)c(OC)c2)c1CC=C(C)C [Compound 8, (E)-3-Ethoxy-5-(4-hydroxy-3-methoxystyryl)-4-(3-methylbut-2-en-1-yl)phenol] | 82 | 503 | 18.1 |  | 210 | ~0.47 | 23.4 | 25 | 7.0 | 25.5 |  |  |  |  |  |  |
| CCOc1cc(O)cc(/C=C/c2ccc(O)c(O)c2)c1CC=C(C)C [Compound 20, (E)-4-(3-Ethoxy-5-hydroxy-2-(3-methylbut-2-en-1-yl)styryl)benzene-1,2-diol] | 54 | 5000 |  |  |  |  | 54.9 |  |  |  |  |  |  |  |  |  |
| COc1cc(/C=C/c2cc(O)cc(OC)c2CC=C(C)C)ccc1NC=O [Compound 27, (E)-N-(4-(5-hydroxy-3-methoxy-2-(3-methylbut-2-en-1-yl)styryl)-2-methoxyphenyl)formamide] | 79 | 507 |  |  |  |  | 21.4 | 15 |  |  | 507 | 79 | 10 to 100 | approximately 5 | 14.7 nM and 13.4 nM and 16.8 nM |  |
| CCOc1cc(O)cc(/C=C/c2ccc(NC=O)c(OC)c2)c1CC=C(C)C [Compound 28, (E)-N-(4-(3-Ethoxy-5-hydroxy-2-(3-methylbut-2-en-1-yl)styryl)-2-methoxyphenyl)formamide] | 80 | 278 |  |  |  |  | 12.9 |  |  |  | 278 | 80 | < 1 |  | 0.94 nM and 0.936 nM | medium potency effect |
| COc1cc(/C=C/c2cc(O)cc(OC)c2CC=C(C)C)ccc1NC(=O)CN [Compound 31, (E)-2-amino-N-(4-(5-hydroxy-3-methoxy-2-(3-methylbut-2-en-1-yl)styryl)-2-methoxyphenyl)acetamide] | 29 | 5000 |  |  |  |  |  |  |  |  |  |  | 3180 |  |  |  |
| CCOc1cc(O)cc(/C=C/c2ccc(NC(=O)C(=O)O)c(OC)c2)c1CC=C(C)C [Compound 35, (E)-2-((4-(3-Ethoxy-5-hydroxy-2-(3-methylbut-2-en-1-yl)styryl)-2-methoxyphenyl)amino)-2-oxoacetic acid] | 11 | 5000 |  |  |  |  |  |  |  |  |  |  |  |  |  |  |
